The subject of assay [1] is SUM159 breast cancer cell line. As to the kind of experiment: MTT cell viability assay, SUM159. In kind it is cell-based, human. The following applies: Homo sapiens, SUM159, 48 h, SUM159 (high IL-6), 0% FBS medium.
In assay [2] the test system is IL-11 induced STAT3 phosphorylation. Briefly: Western blot, IL-11 induced STAT3 phosphorylation in MCF7. In kind it is cell-based, human. The following applies: MCF7, 15 μM, 2, 3 and 4 hours. As for the experimental part:
(§1) Cells were harvested and lysed in cold radioimmunoprecipitation assay (RIPA) lysis buffer containing proteasome inhibitor cocktail and phosphatase inhibitor cocktail. The protein concentrations were determined using the BCA Protein Assay kit. After adding the loading buffer and boiling at 95° C. for 10 minutes, equivalent amounts of proteins were loaded on and separated by SDS-PAGE, and then were transferred to PVDF membranes. Membranes were probed with primary antibodies (1:1000) against phospho-STAT3 (Tyr705), STAT3, phospho-STAT1 (Tyr701), STAT1, phospho-STAT6 (Tyr 641), STAT6, and GAPDH, respectively, and horseradish peroxidase (HRP)-conjugated secondary antibody (1:10000) (Cell Signaling Technology, Beverly, Mass.). Membranes were analyzed using Enhanced Chemiluminescence Plus reagents and either scanned with the Storm Scanner (Amersham Pharmacia Biotech, Inc., Piscataway, N.J.) or imaged with ChemiDoc MP imaging system (Bio-Rad, Hercules, Calif.). […] The cells were harvested after 30 minutes and analyzed by Western blot.
(§2) MCF7 breast cancer cells were seeded in 10 cm plates (1 million cells per plate) and allowed to adhere overnight. […] The cells were harvested after 30 minutes and analyzed by western blotting.
On the technique in general: A western blot detects proteins with antibodies after separation by electrophoresis.

In assay [3] the test system is STAT3 phosphorylation in BxPC-3 cells. As to the kind of experiment: Western blot, STAT3 phosphorylation in BxPC-3 (IL-6 autocrine). In kind it is cell-based, human. As for the experimental part:
as §1, with “Calif.). For cytokine induction of STAT3 phosphorylation, MCF-7 breast cancer cells were seeded in 10 cm plates (1 million cells per plate) and allowed to adhere overnight followed by serum-starvation.” for “Calif.).”
(§3) BxPC-3 and SUM159 cells were seeded in 10 cm plates (1 million cells per plate) and allowed to adhere overnight. […] Then cells were harvested and analyzed by western blotting.

The test system of assay [4] is CT-1 induced STAT3 phosphorylation. Briefly: Western blot, CT-1 induced STAT3 phosphorylation in MCF7. In kind it is cell-based, human. Conditions: MCF7, 15 μM, time dependent. As for the experimental part:
as §1, §2

Assay [5] deals with CNTF induced STAT3 phosphorylation. As to the kind of experiment: Western blot, CNTF induced STAT3 phosphorylation in MCF7. In kind it is cell-based, human. The following applies: MCF7, 15 μM, 2, 3 and 4 hours. As for the experimental part:
as §1, §2

The test system of assay [6] is Capan-1 pancreatic cancer cell line. Briefly: MTT cell viability assay, Capan-1. In kind it is cell-based. The following applies: Homo sapiens. As for the experimental part:
(§4) Human breast cancer cell lines MCF7, MDA-MB-231 and SUM159 were maintained in Dulbecco's modified Eagle medium (DMEM). Human pancreatic cancer cell line BxPC-3 was maintained in RPMI 1640 medium. Human pancreatic cancer cell line Capan-1 was maintained in Iscove's Modified Dulbecco's Medium (IMEM). All media were supplemented with 10% FBS and 1% penicillin/streptomycin, and cells were incubated in a humidified 37° C. incubator with 5% CO2. PE/CA-PJ49 cell line was purchased from external sources and maintained according to manufacturer's protocol.
(§5) Cell viability was evaluated by using the MTT assay in triple replicates in one experiment and repeated for three times. Cancer cells were seeded in 96-well plates at a density of 3,000 cells per well. The cells were incubated at 37° C. for a period of 24 hours. Escalating concentrations of IL-6/gp130 inhibitors were added in triplicate to the plates in the presence of 10% FBS. After incubation for 48 or 72 hours, a stock solution of MTT (0.5 mg/ml) was then added to each well containing the treated cells, followed by incubation at 37° C. for 3 h. After removal of medium, the MTT dye was dissolved with spectrophotometric grade DMSO and the absorbance was read at 570 nm. The IC50 value is determined by interpolation based on the absorbance value halfway between positive and negative controls. […]
In general terms: Tetrazolium dyes change colour on reduction, which living cells bring about.

Assay [7] has as its system MCF7 breast cancer cell line. As to the kind of experiment: MTT cell viability assay, MCF7. The following applies: Homo sapiens; MCF7 (low IL-6), 48 h, 0% FBS medium. In kind it is cell-based, human. Here is the method: as §4
as §5, with “Escalating concentrations of IL-6/gp130 inhibitors were added in triplicate to the plates in the presence of 10% FBS.” left out

Assay [8] relates to STAT3 phosphorylation in SUM159 cells. Briefly: Western blot, STAT3 phosphorylation in SUM159 (IL-6 autocrine). In kind it is cell-based, human. Conditions: SUM159, 1-4 μM, 16 h. As for the experimental part: as §1, §3
SUM159 cells were seeded in 10 cm plates (1 million cells per plate) and allowed to adhere overnight. […] Then cells were harvested and analyzed by western blotting.

A further assay relates to STAT2 phosphorylation. Briefly: Western blot, STAT2 phosphorylation in MCF7. Conditions: MCF7, pre-treatment 2, 3 and 4 hours. In kind it is cell-based, human. Here is the method: (§6) FIG. 13. depicts the reduced effect on STAT1, STAT2, STAT4 and STAT6 phosphorylation by LLM418. The MCF7 cells were serum-starved overnight, then treated with LLM4 (15 μM) for 2, 3 and 4 hours. STAT1, STAT2, STAT4 and STAT6 phosphorylation were induced by INF-γ, INF-α and IL-4, respectively. The cells were harvested at 30 minutes and analyzed by western blot assays.
as §1

The next assay has as its system STAT4 phosphorylation. As to the kind of experiment: Western blot, STAT4 phosphorylation in MCF7. In kind it is cell-based, human. The following applies: MCF7, pre-treatment 2, 3 and 4 hours. As for the experimental part:
as §6, §1

The source of these data is patent US11530181B2, “IL-6 inhibitors and methods of treatment” (University of Florida Research Foundation, Incorporated, priority 2018, dated 2022).

In general, IC50 refers to the concentration at which inhibition is half-maximal. The low end stands for higher potency, the high end for lower potency. In the case of `O=C(Nc1cc(F)ccc1-n1cccc1)c1ccc(OCCCN2CCCCC2)cc1` [LLM4, N-(5-fluoro-2-(1H-pyrrol-1-yl)phenyl)-4-(3-(piperidin-1-yl)propoxy)benzamide], the IC50 in [1] was found to be 0.04 µM; in assay [6], 35.1 µM; in [7], 4.51 µM. In assay [2], the “inhibition of IL-11 induced STAT3 phosphorylation” value is reported as “also inhibited IL-11 induced STAT3 phosphorylation”. Besides, the “inhibition of STAT3 phosphorylation” value in [3] (BxPC-3, 20 μM) is “almost complete inhibition”; in [3] (BxPC-3, 5-20 μM, 16 h) it was “inhibited STAT3 phosphorylation in BxPC-3 cells in a dose dependent manner”. Moreover, the “CT-1 induced STAT3 phosphorylation” value in assay [4] was “minor influence”. Besides, the “CNTF induced STAT3 phosphorylation” value in [5] is on record as “remain intact”.
In the case of `O=C(Nc1cccc(OCCN2CCCCC2)c1)Nc1cccc(-c2ccn[nH]2)c1` [LLM414, 1-(3-(1H-pyrazol-5-yl)phenyl)-3-(3-(2-(piperidin-1-yl)ethoxy)phenyl)urea], the “inhibition of STAT3 phosphorylation” value in assay [8] was “inhibited STAT3 phosphorylation in SUM159 cells”.
As for `O=C(Nc1ccccc1-c1ccn[nH]1)c1ccc(OCCN2CCCCC2)cc1` [LLM418, N-(2-(1H-pyrazol-5-yl)phenyl)-4-(2-(piperidin-1-yl)ethoxy)benzamide], in the assay with STAT2 phosphorylation, the “effect on STAT2 phosphorylation” value is “little effect”. Besides, the “inhibition of STAT3 phosphorylation” value in [8] is recorded as “stronger inhibition than LLM414”. Also, the “effect on STAT4 phosphorylation” value in the assay on STAT4 phosphorylation is reported as “little effect”.
